{"source": "ChEMBL document CHEMBL5042492", "about": "“Noncovalent CDK12/13 dual inhibitors-based PROTACs degrade CDK12-Cyclin K complex and induce synthetic lethality with PARP inhibitor” (Eur J Med Chem, 2022)", "key": {"[1]": {"biological_target": "T1, Protein cereblon/Cyclin-K/Cyclin-dependent kinase 12 (Homo sapiens, UniProt O75909+Q9NYV4+Q96SW2)", "T1 sequence (O75909 whole entry, looked up)": "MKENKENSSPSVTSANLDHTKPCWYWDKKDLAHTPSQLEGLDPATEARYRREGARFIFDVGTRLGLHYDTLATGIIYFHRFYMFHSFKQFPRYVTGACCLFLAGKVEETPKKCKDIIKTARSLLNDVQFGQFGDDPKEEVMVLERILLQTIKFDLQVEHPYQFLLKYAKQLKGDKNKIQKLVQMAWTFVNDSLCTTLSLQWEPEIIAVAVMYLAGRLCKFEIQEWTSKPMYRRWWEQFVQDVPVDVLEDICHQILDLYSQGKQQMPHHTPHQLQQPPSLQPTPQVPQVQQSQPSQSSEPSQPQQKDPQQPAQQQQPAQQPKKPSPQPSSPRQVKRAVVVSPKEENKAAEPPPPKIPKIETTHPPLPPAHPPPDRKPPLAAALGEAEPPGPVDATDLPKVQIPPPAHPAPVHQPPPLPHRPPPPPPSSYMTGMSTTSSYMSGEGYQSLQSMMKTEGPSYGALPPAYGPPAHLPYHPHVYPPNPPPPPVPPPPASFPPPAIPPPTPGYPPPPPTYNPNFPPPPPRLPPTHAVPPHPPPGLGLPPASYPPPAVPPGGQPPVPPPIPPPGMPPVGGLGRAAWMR", "T1 sequence (Q96SW2 whole entry, looked up)": "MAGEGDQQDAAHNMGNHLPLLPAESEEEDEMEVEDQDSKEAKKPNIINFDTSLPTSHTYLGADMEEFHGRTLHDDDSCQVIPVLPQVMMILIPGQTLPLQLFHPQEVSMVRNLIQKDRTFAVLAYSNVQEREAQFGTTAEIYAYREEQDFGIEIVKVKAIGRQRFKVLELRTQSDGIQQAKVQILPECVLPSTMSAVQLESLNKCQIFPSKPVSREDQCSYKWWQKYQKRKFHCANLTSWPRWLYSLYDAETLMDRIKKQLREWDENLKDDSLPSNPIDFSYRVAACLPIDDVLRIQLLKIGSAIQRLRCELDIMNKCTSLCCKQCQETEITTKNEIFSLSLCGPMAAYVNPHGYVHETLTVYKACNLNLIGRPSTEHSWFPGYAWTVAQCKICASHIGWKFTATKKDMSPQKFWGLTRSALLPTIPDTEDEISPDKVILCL", "T1 sequence (Q9NYV4 whole entry, looked up)": "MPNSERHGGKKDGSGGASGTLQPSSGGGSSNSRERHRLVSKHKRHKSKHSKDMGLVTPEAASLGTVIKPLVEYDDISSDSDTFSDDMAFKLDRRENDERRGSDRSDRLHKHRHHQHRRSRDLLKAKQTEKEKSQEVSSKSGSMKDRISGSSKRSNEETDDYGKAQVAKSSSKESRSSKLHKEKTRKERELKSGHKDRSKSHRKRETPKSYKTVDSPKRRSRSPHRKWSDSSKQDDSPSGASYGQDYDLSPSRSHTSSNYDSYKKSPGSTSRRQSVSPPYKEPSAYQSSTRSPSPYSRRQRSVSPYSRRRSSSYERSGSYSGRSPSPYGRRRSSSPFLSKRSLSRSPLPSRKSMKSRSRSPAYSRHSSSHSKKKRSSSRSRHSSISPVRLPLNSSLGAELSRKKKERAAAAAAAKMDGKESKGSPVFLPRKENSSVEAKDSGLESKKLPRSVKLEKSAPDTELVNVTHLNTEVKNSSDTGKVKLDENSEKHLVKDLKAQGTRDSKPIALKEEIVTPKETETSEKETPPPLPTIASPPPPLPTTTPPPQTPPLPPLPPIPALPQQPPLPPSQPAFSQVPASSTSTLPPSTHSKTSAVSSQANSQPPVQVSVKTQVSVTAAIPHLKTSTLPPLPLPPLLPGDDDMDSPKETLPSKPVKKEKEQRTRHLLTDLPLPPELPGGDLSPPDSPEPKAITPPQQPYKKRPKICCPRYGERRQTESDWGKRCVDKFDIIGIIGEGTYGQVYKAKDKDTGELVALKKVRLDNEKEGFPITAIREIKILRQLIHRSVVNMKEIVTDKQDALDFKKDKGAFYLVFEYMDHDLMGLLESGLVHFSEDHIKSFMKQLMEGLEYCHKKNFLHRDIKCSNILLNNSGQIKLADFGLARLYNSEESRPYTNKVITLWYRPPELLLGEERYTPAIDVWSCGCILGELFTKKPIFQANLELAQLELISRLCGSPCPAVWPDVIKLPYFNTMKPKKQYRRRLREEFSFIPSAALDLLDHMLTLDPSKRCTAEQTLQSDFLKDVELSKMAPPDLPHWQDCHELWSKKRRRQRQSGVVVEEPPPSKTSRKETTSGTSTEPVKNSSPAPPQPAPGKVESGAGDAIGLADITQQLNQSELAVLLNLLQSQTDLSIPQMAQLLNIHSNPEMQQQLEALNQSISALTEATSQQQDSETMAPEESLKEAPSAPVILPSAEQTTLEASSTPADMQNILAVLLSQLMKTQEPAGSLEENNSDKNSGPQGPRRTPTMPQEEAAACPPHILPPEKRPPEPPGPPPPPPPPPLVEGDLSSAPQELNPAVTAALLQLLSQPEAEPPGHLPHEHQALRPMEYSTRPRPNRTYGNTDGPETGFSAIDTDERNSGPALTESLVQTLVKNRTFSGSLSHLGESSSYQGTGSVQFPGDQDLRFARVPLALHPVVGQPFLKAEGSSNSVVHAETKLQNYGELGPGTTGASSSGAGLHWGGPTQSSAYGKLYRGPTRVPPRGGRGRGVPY", "test": "Protac activity at human CRBN/CDK12/CycK in human Bel-7402 cells assessed as degradation of CDK12 at 3 uM measured after 24 hrs by Western blotting assay", "type": "cell-based"}, "[2]": {"biological_target": "T1, Protein cereblon/Cyclin-K/Cyclin-dependent kinase 12", "test": "Protac activity at human CRBN/CDK12/CycK in human MDA-MB-231 cells assessed as degradation of CDK12 at 3 uM measured after 24 hrs by Western blotting assay", "type": "cell-based"}, "[3]": {"biological_target": "Cyclin-dependent kinase 13 (Homo sapiens) (UniProt Q14004)", "sequence (Q14004 whole entry, looked up, the tested form may be a part)": "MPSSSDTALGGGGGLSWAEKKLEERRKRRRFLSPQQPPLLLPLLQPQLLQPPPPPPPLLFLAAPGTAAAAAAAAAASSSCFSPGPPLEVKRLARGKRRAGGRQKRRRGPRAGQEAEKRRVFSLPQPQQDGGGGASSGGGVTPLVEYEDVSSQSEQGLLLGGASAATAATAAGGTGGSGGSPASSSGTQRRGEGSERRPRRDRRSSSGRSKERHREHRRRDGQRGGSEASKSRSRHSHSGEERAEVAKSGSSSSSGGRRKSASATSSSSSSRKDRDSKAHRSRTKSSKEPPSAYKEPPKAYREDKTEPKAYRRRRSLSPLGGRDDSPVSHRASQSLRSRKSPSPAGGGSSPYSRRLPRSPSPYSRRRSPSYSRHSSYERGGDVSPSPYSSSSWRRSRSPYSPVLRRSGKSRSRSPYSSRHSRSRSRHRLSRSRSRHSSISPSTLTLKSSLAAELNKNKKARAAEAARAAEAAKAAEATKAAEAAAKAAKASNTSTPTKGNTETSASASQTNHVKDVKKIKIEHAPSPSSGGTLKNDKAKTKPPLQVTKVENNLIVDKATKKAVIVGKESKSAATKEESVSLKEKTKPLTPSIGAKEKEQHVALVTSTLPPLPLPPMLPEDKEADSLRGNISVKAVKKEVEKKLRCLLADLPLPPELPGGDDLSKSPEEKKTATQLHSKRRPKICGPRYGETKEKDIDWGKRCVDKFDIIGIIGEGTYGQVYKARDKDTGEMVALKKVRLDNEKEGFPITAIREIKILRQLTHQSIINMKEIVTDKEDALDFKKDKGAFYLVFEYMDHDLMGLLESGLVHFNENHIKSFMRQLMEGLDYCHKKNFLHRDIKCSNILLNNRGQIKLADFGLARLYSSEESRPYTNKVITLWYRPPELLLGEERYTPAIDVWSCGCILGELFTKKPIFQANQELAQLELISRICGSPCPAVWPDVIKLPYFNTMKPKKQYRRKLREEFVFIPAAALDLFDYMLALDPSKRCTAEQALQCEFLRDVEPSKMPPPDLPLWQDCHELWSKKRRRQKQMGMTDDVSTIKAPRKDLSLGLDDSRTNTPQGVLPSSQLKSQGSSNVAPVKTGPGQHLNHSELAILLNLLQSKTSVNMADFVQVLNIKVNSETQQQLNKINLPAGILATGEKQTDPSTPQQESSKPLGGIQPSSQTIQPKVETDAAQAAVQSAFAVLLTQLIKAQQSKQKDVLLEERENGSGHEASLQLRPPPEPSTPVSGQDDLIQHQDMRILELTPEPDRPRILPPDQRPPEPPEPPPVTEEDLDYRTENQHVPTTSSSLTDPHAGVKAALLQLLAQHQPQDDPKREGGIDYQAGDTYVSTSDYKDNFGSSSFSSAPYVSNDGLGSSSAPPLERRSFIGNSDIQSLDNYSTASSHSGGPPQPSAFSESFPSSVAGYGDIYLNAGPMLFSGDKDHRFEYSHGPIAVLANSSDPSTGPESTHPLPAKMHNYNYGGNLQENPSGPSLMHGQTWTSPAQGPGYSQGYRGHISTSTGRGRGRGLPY", "test": "Inhibition of human N-terminal FLAG-tagged CDK13 (600 to 1100 residues) using GST-tagged CTD as substrate at 3 uM for 2 hrs by western blot analysis"}, "CDK12/Cyclin K": {"biological_target": "CDK12/Cyclin K (Homo sapiens, UniProt Q9NYV4)", "sequence (O75909 whole entry, the tested form may be a part)": "as the sequence (O75909 whole entry, looked up) above", "sequence (Q9NYV4 whole entry, the tested form may be a part)": "as the sequence (Q9NYV4 whole entry, looked up) above", "test": "Inhibition of human CDK12 (696 to 1082 residues) /cyclinK (1 to 300 residues) using ac-YSPTSPpSYSPTSFpS-YSPTSPpSY-[PEG2]-RR-amid peptide as substrate in presence of ATP measured after 2 hrs by ADP-Glo kinase assay", "type": "protein-complex assay"}}, "note": "The source made the active and inactive calls. The rule behind the calls is not given here."}
{"smiles": "CC(C)n1cnc2c(NCc3nc4cc(F)c(NCCCCCCCCCCCCNC(=O)COc5cccc6c5C(=O)N(C5CCC(=O)NC5=O)C6=O)cc4[nH]3)nc(N3CCOCC3)nc21", "note": "(centres undefined)", "values": [{"measurement": "Activity", "setting": "[1]", "value": "Active"}, {"measurement": "Activity", "setting": "[2]", "value": "Active"}, {"measurement": "inhibition", "setting": "[3]", "value": "inactive"}, {"measurement": "IC50", "setting": "CDK12/Cyclin K", "value": 2000, "unit": "nM"}]}
